# Measurements as given in US11130752B2, “Aminopyrimidine compound” (Cardurion Pharmaceuticals, LLC, priority 2018, dated 2021).
# Columns and labels:
# [1] = molecular target: T1, human CaMKIIδ (Homo sapiens, UniProt Q13557); test: In vitro CaMKII inhibitory activity (binding assay, TR-FRET); conditions: activity ranks
# T1 construct: Full-length, glutathione-S-transferase(GST)-tagged, human CaMKIIδ was purchased from Carna Biosciences; purchased Carna Biosciences (CaMKIIδ); Wako Pure Chemical Industries (calmodulin) 02-111
# How it was run: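 TR-FRET displacement of a BODIPY probe (300 nM) from 0.5 nM full-length GST-tagged human CaMKIIδ, with Tb-anti-GST, calmodulin and 1 mM CaCl2 in pH 7.6 HEPES/MgCl2 buffer. Read after 1 hr at room temperature over an eight-point 4-fold series. IC50 by logistic fit, with 3 μM parent compound as the 100% control.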
# [2] = test system: phospholamban (Thr17, PLN) phosphorylation, cardiac CaMKII; test: In vivo cardiac CaMKII inhibition (oral administration), P-PLN Western blot; conditions: male CD (SD) IGS rat left ventricle, 30 mg/kg p.o., 4 hr after administration, in comparison with vehicle-treated group, read-out: Reduction rate of P-PLN
# Procedure: Evaluation of In Vivo Cardiac CaMKII Inhibition (Oral Administration)
# To evaluate potency of test compounds to inhibit cardiac CaMKII kinase in vivo, phosphorylation levels of CaMKII-specific sites of phospholamban (Thr17, PLN) were measured in the heart of rats administered orally with test compounds.
# Test compounds were suspended in 0.5% [w/v]methylcellulose/water solution and administered (30 mg/kg) to male CD (SD) IGS rat (6-8 weeks old, n=4) by the p.o. route (5 mL/kg). At 4 hours after the administration, rats were sacrificed and the hearts were harvested. After washing the isolated hearts with ice-cold saline, connective tissues were removed on ice, and the isolated left ventricle were frozen into liquid nitrogen gas and stored at −80° C.
# The left ventricle samples were homogenized in RIPA-buffer containing phosphatase inhibitors and protease inhibitors. Samples were analyzed by Western blotting using anti-P-PLN (Thr17, Santa Cruz Biotechnology, sc-17024-R) antibody. The band intensities were quantified using an imaging system and were normalized relative to the vehicle-treated group.
# [3] = test system: HepG2 cells; test: In vitro cytotoxicity (cellular ATP content, CellTiter-Glo); assay type: cell-based; conditions: 33 μM, 72 hr incubation
# Procedure: Evaluation of In Vitro Cytotoxicity
# To evaluate in vitro cytotoxicity of test compounds, % ATP reduction was determined in the presence of 33 μM of each test compound after 72 hr incubation.
# HepG2 cells were seeded in DMEM (Invitrogen) containing 10% FBS (Corning)+glucose (4.5 g/L) for 24 hr to allow cell adhesion. For compound treatments, compounds were diluted in DMSO and the media, followed by added to the wells (24 hr after the cell seeding) to obtain the desired final concentration (33 μM, n=2). The final DMSO concentration was 1%. After 72 hr, cellular ATP contents were measured using CellTiter-Glo Luminescent Cell Viability Assay (Promega). The % ATP reduction was determined by comparing the ATP contents in the absence and the presence of test compounds.
# [4] = Table 1, GST-tagged human CaMKIIδ
# [5] = Table 4, GST-tagged human CaMKIIδ
SMILES,"IC50 [1, 4]",inhibition in vivo at 30 mg/kg [2],% ATP reduction [3],"IC50 [1, 5]"
"CCOCCOc1nn([C@H]2CC[C@H](N3[C@@H]4CC[C@H]3COC4)CC2)cc1Nc1ncc(-c2ccc(C#N)c(O[C@@H](C)Cn3cnnn3)c2)cn1 [Example 12, 2-(((S)-1-(1H-tetrazol-1-yl)propan-2-yl)oxy)-4-(2-((1-((1r,4r)-4-((1R,5S)-3-oxa-8-azabicyclo[3.2.1]octan-8-yl)cyclohexyl)-3-(2-ethoxyethoxy)-1H-pyrazol-4-yl)amino)pyrimidin-5-yl)benzonitrile]",< 10 nM,> 30%,,
"COCCCOc1nn([C@H]2CC[C@H](N3[C@@H]4CC[C@H]3COC4)CC2)cc1Nc1ncc(-c2ccc(C#N)c(O[C@@H](C)Cn3cnnn3)c2)cn1 [Example 30, 2-(((S)-1-(1H-tetrazol-1-yl)propan-2-yl)oxy)-4-(2-((1-((1r,4r)-4-((1R,5S)-3-oxa-8-azabicyclo[3.2.1]octan-8-yl)cyclohexyl)-3-(3-methoxypropoxy)-1H-pyrazol-4-yl)amino)pyrimidin-5-yl)benzonitrile]",< 10 nM,> 30%,,
"CCOCCCOc1nn([C@H]2CC[C@H](N3CCOCC3)CC2)cc1Nc1ncc(-c2ccc(C#N)c(O[C@@H](C)Cn3cnnn3)c2)cn1 [Example 33, 2-(((S)-1-(1H-tetrazol-1-yl)propan-2-yl)oxy)-4-(2-((3-(3-ethoxypropoxy)-1-((1r,4r)-4-morpholinocyclohexyl)-1H-pyrazol-4-yl)amino)pyrimidin-5-yl)benzonitrile]",< 10 nM,> 30%,,
"CCOCCCOc1nn([C@H]2CC[C@H](N3[C@@H]4CC[C@H]3COC4)CC2)cc1Nc1ncc(-c2ccc(C#N)c(O[C@@H](C)Cn3cnnn3)c2)cn1 [Example 36, 2-(((S)-1-(1H-tetrazol-1-yl)propan-2-yl)oxy)-4-(2-((1-((1r,4r)-4-((1R,5S)-3-oxa-8-azabicyclo[3.2.1]octan-8-yl)cyclohexyl)-3-(3-ethoxypropoxy)-1H-pyrazol-4-yl)amino)pyrimidin-5-yl)benzonitrile]",< 10 nM,> 30%,,
"COCCOCCOc1nn([C@H]2CC[C@H](N3C[C@@H](C)O[C@@H](C)C3)CC2)cc1Nc1ncc(-c2ccc(C#N)c(O[C@@H](C)Cn3cnnn3)c2)cn1.Cl [Example 241, 2-(((S)-1-(1H-tetrazol-1-yl)propan-2-yl)oxy)-4-(2-((1-((1r,4r)-4-((2S,6R)-2,6-dimethylmorpholino)cyclohexyl)-3-(2-(2-methoxyethoxy)ethoxy)-1H-pyrazol-4-yl)amino)pyrimidin-5-yl)benzonitrile hydrochloride]",< 10 nM,,−2%,
"C[C@@H]1CN([C@H]2CC[C@H](n3cc(Nc4ncc(-c5ccc(Cl)c(O[C@@H](C)Cn6cnnn6)c5)cn4)c(OCCC(C)(C)O)n3)CC2)C[C@H](C)O1 [Example 486, 4-((4-((5-(3-(((S)-1-(1H-tetrazol-1-yl)propan-2-yl)oxy)-4-chlorophenyl)pyrimidin-2-yl)amino)-1-((1r,4r)-4-((2S,6R)-2,6-dimethylmorpholino)cyclohexyl)-1H-pyrazol-3-yl)oxy)-2-methylbutan-2-ol]",,> 30%,,< 10 nM
"COCCOCCCOc1nn([C@H]2CC[C@H](N3C[C@@H](C)O[C@@H](C)C3)CC2)cc1Nc1ncc(-c2ccc(Cl)c(O[C@@H](C)Cn3cnnn3)c2)cn1 [Example 487, 5-(3-(((S)-1-(1H-tetrazol-1-yl)propan-2-yl)oxy)-4-chlorophenyl)-N-(1-((1r,4r)-4-((2S,6R)-2,6-dimethylmorpholino)cyclohexyl)-3-(3-(2-methoxyethoxy)propoxy)-1H-pyrazol-4-yl)pyrimidin-2-amine]",,> 30%,,< 10 nM
"COCCCOc1nn([C@H]2CC[C@H](N3C[C@@H](C)O[C@@H](C)C3)CC2)cc1Nc1ncc(-c2ccc(Cl)c(O[C@@H](C)Cn3cnnn3)c2)cn1 [Example 489, 5-(3-(((S)-1-(1H-tetrazol-1-yl)propan-2-yl)oxy)-4-chlorophenyl)-N-(1-((1r,4r)-4-((2S,6R)-2,6-dimethylmorpholino)cyclohexyl)-3-(3-methoxypropoxy)-1H-pyrazol-4-yl)pyrimidin-2-amine]",,> 30%,,< 10 nM
"C[C@@H](Cn1cnnn1)Oc1cc(-c2cnc(Nc3cn(C4CCC(N5CCOCC5)CC4)nc3OCc3ccnn3C)nc2)ccc1Cl (stereo partly drawn) [Example 505, 5-(3-(((S)-1-(1H-tetrazol-1-yl)propan-2-yl)oxy)-4-chlorophenyl)-N-(3-((1-methyl-1H-pyrazol-5-yl)methoxy)-1-((1r,4r)-4-morpholinocyclohexyl)-1H-pyrazol-4-yl)pyrimidin-2-amine]",,,,< 10 nM
"Cc1noc(C)c1COc1nn([C@H]2CC[C@H](N3CCOCC3)CC2)cc1Nc1ncc(-c2ccc(Cl)c(O[C@@H](C)Cn3cnnn3)c2)cn1 [Example 506, 5-(3-(((S)-1-(1H-tetrazol-1-yl)propan-2-yl)oxy)-4-chlorophenyl)-N-(3-((3,5-dimethylisoxazol-4-yl)methoxy)-1-((1r,4r)-4-morpholinocyclohexyl)-1H-pyrazol-4-yl)pyrimidin-2-amine]",,,,< 10 nM
"C[C@@H](Cn1cnnn1)Oc1cc(-c2cnc(Nc3cn([C@H]4CC[C@H](N5CCOCC5)CC4)nc3OCCn3ccnc3)nc2)ccc1Cl [Example 507, N-(3-(2-(1H-imidazol-1-yl)ethoxy)-1-((1r,4r)-4-morpholinocyclohexyl)-1H-pyrazol-4-yl)-5-(3-(((S)-1-(1H-tetrazol-1-yl)propan-2-yl)oxy)-4-chlorophenyl)pyrimidin-2-amine]",,,,< 10 nM
"C[C@@H](Cn1cnnn1)Oc1cc(-c2cnc(Nc3cn([C@H]4CC[C@H](N5CCOCC5)CC4)nc3OCCCn3cncn3)nc2)ccc1Cl [Example 508, N-(3-(3-(1H-1,2,4-triazol-1-yl)propoxy)-1-((1r,4r)-4-morpholinocyclohexyl)-1H-pyrazol-4-yl)-5-(3-(((S)-1-(1H-tetrazol-1-yl)propan-2-yl)oxy)-4-chlorophenyl)pyrimidin-2-amine]",,,,< 10 nM
"C[C@@H](Cn1cnnn1)Oc1cc(-c2cnc(Nc3cn([C@H]4CC[C@H](N5CCOCC5)CC4)nc3OCc3ncccn3)nc2)ccc1Cl [Example 509, 5-(3-(((S)-1-(1H-tetrazol-1-yl)propan-2-yl)oxy)-4-chlorophenyl)-N-(1-((1r,4r)-4-morpholinocyclohexyl)-3-(pyrimidin-2-ylmethoxy)-1H-pyrazol-4-yl)pyrimidin-2-amine]",,,,10 to 100 nM
"C[C@@H](Cn1cnnn1)Oc1cc(-c2cnc(Nc3cn([C@H]4CC[C@H](N5CCOCC5)CC4)nc3OCCc3cccnc3)nc2)ccc1Cl [Example 510, 5-(3-(((S)-1-(1H-tetrazol-1-yl)propan-2-yl)oxy)-4-chlorophenyl)-N-(1-((1r,4r)-4-morpholinocyclohexyl)-3-(2-(pyridin-3-yl)ethoxy)-1H-pyrazol-4-yl)pyrimidin-2-amine]",,,,< 10 nM
"COCCOCCOCCOc1nn([C@H]2CC[C@H](N3CCOCC3)CC2)cc1Nc1ncc(-c2ccc(Cl)c(O[C@@H](C)Cn3cnnn3)c2)cn1 [Example 511, 5-(3-(((S)-1-(1H-tetrazol-1-yl)propan-2-yl)oxy)-4-chlorophenyl)-N-(3-(2-(2-(2-methoxyethoxy)ethoxy)ethoxy)-1-((1r,4r)-4-morpholinocyclohexyl)-1H-pyrazol-4-yl)pyrimidin-2-amine]",,,,10 to 100 nM
"[2H]C([2H])([2H])OCCCOc1nn([C@H]2CC[C@H](N3CCOCC3)CC2)cc1Nc1ncc(-c2ccc(Cl)c(O[C@@H](C)Cn3cnnn3)c2)cn1 [Example 512, 5-(3-(((S)-1-(1H-tetrazol-1-yl)propan-2-yl)oxy)-4-chlorophenyl)-N-(3-(3-(methoxy-d3)propoxy)-1-((1r,4r)-4-morpholinocyclohexyl)-1H-pyrazol-4-yl)pyrimidin-2-amine]",,,,< 10 nM
"C[C@@H](Cn1cnnn1)Oc1cc(-c2cnc(Nc3cn([C@H]4CC[C@H](N5CCOCC5)CC4)nc3OCCn3cccn3)nc2)ccc1Cl [Example 513, N-(3-(2-(1H-pyrazol-1-yl)ethoxy)-1-((1r,4r)-4-morpholinocyclohexyl)-1H-pyrazol-4-yl)-5-(3-(((S)-1-(1H-tetrazol-1-yl)propan-2-yl)oxy)-4-chlorophenyl)pyrimidin-2-amine]",,,,< 10 nM
